Data published in PMC12294558, “New 1,2,4-Triazole Derivatives with a N-Mannich Base Structure Based on a 4,6-Dimethylpyridine Scaffold as Anticancer Agents: Design, Synthesis, Biological Evaluation, and Molecular Modeling” (International Journal of Molecular Sciences, 2025).

Tests used:
Caspase-3 = experiment: Human Caspase-3 (active) ELISA on HT-29 cell lysates; format: cell-based; conditions: HT-29, 1 µM, 24 h
Procedure: To check the effect of compound 6 on the level of p-53 and caspase-3 protein, another test was performed on HT-29 cells, taking doxorubicin as the reference drug.
To assess the level of caspase-3 and p53 protein, HT-29 cell lysates were used after 24 h of incubation with compounds 5 and 6. The supernatant was collected in the prepared and labeled tubes, the cells from the wells were scraped, and the wells were washed with cold PBS, which was also collected. The tubes were then centrifuged, the supernatant was removed, and the cell pellet was lysed in a cell extraction vessel for 30 min on ice, with […] every 10 min. The lysate was transferred to centrifuge tubes and centrifuged at 13,000 rpm for 10 min at 4 °C. The supernatant was transferred to clean tubes in a microcentrifuge.
The following kits were used: Human Caspase-3 (active) ELISA Kit (KHO1091) and p53 Human ELISA Kit (BMS256), used following the manufacturer’s instructions. ELISA kits were purchased from Thermo Fisher Scientific (Waltham, MA, USA). The absorbance was measured using a Multiskan GO microplate reader (Thermo Fisher Scientific, Waltham, MA, USA) at wavelengths specific to each kit, as recommended by the manufacturer.

interleukin-6 = experiment: IL-6 ELISA in HT-29 supernatant; format: cell-based, human; conditions: HT-29, 1 µM
From the text: The different effects of the anticancer compound on IL-6 and IL-1β can be explained by the different regulatory mechanisms of these cytokines and the distinct signaling pathways targeted by the therapy. The reduction in IL-6 levels may be due to the direct action of the compound on pathways promoting this cytokine or its ability to inhibit inflammatory processes specific to IL-6. In contrast, the increase in IL-1β levels might result from the inflammatory response to cellular stress or apoptosis induced by the therapy, leading to activation of the immune system and increased production of IL-1β.
Cytokine levels (IL-1β and IL-6) in the supernatant were measured for HT-29 and EPG cells treated with compounds 5 and 6, according to the instructions provided by the manufacturer of the ELISA kits were purchased from Abcam (Cambridge, UK). The absorbance was measured using a Multiskan GO microplate reader (Thermo Fisher Scientific, Waltham, MA, USA) at wavelengths specific to each kit, as recommended by the manufacturer.

## Cc1ccc(N2CCN(Cn3nc(CNC(=O)c4c(C)cc(C)nc4S)n(-c4ccccc4)c3=S)CC2)cc1 [Compound 6]
Caspase-3
  Caspase-3 Conc. ± SD: 0.48 ± 0.07 ng/mL
interleukin-6
  IL-6 Conc. ± SD: 7.80 ± 0.30 pg/mL
